Like-named read-outs stand apart in the source and are kept apart here.
Experiments:
Test in all cases: Kinase selectivity, P33-radiolabeled assay
Assay type in all cases: biochemical
Details in all cases: 10 μM ATP
RSK4 = molecular target: T1, RSK4 (Homo sapiens, UniProt Q9UK32)
T1 construct: purchased Reaction Biology Corp
Summary of the method: (§1)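 Reactions contained 10 μM ATP and 10 μM test compound, each run in duplicate. Kinase activity is expressed as a percentage of DMSO-treated controls.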

VRK1 = molecular target: T2, VRK1 (Homo sapiens, UniProt Q99986)
T2 construct: purchased Reaction Biology Corp
T2 sequence (Q99986 1-396): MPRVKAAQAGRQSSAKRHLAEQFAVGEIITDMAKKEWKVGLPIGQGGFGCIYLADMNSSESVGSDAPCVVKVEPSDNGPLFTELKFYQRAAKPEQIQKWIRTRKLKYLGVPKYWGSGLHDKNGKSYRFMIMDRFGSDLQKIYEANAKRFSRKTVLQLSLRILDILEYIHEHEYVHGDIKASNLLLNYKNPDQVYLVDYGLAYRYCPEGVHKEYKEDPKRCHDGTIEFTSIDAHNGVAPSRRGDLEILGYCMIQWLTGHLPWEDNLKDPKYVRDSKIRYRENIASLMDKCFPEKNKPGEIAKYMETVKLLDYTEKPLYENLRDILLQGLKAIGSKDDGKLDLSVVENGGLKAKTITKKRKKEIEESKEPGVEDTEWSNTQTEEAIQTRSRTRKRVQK
Summary of the method: as §1

EPHB4 = molecular target: T3, EPHB4 (Homo sapiens, UniProt P54760)
T3 construct: purchased Reaction Biology Corp
T3 sequence (P54760 16-987): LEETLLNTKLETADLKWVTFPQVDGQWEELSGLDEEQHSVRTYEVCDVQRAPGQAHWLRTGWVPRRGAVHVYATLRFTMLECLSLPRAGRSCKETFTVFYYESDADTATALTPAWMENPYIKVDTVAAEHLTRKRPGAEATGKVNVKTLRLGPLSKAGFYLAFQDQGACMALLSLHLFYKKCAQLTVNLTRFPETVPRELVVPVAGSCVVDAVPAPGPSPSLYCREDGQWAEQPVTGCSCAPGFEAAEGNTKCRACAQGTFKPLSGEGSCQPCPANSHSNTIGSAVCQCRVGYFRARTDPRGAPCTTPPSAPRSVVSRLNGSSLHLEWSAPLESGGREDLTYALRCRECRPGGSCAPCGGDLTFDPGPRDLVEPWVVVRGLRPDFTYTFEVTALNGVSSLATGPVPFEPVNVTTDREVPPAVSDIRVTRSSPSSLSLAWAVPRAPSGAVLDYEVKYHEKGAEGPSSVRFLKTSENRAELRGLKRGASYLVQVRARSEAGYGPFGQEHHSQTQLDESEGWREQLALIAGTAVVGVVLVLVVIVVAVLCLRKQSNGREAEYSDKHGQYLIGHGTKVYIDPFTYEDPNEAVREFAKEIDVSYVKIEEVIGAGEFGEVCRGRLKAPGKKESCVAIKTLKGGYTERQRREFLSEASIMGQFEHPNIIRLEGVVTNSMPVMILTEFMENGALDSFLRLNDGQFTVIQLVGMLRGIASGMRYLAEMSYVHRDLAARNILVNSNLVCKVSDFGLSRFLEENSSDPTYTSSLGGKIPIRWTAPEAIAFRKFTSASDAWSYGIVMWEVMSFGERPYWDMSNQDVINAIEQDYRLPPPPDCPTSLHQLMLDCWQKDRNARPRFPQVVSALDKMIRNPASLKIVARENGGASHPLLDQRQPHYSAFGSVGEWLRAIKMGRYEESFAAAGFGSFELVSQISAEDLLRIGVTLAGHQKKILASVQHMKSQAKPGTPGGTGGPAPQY
Summary of the method: as §1

TBK1 = molecular target: T4, TBK1 (Homo sapiens, UniProt Q9UHD2)
T4 construct: purchased Reaction Biology Corp
T4 sequence (Q9UHD2 1-729): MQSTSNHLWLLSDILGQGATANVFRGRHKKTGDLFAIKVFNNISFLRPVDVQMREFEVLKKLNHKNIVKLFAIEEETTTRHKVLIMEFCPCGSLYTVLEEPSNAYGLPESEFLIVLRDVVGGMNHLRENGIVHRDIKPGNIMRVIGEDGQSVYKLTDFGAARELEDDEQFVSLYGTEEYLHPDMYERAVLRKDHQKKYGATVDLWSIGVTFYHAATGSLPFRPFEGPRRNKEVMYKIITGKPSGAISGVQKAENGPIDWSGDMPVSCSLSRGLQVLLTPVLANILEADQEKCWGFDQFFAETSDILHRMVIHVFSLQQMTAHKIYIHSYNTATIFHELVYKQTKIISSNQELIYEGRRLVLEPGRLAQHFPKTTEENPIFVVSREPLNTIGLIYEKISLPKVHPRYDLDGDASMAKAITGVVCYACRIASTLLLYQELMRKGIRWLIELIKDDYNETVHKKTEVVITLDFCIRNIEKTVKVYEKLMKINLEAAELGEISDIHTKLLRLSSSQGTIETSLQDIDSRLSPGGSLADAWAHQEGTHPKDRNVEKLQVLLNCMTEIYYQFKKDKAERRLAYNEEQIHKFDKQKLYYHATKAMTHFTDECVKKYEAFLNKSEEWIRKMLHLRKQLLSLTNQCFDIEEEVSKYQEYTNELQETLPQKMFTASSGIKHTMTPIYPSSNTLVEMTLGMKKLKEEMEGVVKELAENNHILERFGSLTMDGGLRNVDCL
Summary of the method: as §1

CAMK2a = molecular target: T5, CAMK2a (Homo sapiens, UniProt Q9UQM7)
T5 construct: purchased Reaction Biology Corp
T5 sequence (Q9UQM7 whole entry): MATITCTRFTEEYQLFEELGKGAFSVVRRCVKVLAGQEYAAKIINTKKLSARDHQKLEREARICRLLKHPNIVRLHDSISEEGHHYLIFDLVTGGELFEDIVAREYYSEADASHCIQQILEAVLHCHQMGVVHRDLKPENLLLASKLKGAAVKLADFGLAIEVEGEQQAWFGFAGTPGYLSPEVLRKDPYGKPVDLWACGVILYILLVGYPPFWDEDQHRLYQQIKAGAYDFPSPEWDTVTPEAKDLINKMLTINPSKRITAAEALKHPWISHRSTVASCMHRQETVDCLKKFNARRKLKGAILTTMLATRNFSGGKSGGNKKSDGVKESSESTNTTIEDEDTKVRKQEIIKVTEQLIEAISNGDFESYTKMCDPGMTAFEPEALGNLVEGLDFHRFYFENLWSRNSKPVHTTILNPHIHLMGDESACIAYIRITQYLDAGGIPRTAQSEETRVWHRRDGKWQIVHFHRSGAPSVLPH
Summary of the method: as §1

CAMK1a = molecular target: T6, CAMK1a (Homo sapiens, UniProt Q14012)
T6 construct: purchased Reaction Biology Corp
T6 sequence (Q14012 whole entry): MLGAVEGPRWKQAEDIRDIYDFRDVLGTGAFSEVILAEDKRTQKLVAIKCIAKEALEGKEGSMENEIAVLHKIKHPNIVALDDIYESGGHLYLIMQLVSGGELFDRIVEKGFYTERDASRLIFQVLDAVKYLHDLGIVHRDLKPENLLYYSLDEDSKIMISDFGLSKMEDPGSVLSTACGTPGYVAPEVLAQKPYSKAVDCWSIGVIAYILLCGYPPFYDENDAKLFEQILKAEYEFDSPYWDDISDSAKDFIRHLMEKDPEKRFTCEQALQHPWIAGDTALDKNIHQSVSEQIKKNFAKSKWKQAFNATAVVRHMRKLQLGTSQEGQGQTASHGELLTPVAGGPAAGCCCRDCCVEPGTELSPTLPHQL
Summary of the method: as §1

HCK = molecular target: T7, HCK (Homo sapiens, UniProt P08631)
T7 construct: purchased Reaction Biology Corp
T7 sequence (P08631 whole entry): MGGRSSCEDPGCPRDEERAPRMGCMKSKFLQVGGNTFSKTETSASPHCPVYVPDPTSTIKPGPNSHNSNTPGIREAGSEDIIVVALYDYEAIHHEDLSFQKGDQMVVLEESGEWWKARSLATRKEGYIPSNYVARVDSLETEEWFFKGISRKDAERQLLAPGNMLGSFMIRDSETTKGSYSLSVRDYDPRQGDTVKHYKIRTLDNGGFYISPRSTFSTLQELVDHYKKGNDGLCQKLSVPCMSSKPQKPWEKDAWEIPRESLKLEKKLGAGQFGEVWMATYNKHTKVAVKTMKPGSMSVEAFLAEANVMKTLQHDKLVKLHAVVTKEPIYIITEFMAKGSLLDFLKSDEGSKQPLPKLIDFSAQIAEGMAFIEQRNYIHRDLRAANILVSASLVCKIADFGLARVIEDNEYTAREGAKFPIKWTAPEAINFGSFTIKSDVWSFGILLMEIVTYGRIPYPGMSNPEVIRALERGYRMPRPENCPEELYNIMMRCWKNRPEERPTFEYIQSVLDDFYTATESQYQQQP
Summary of the method: as §1

[1] = read-out: % Enzyme Activity (relative to DMSO controls) AVG
[2] = read-out: % Enzyme Activity (relative to DMSO controls) Data 1
[3] = read-out: % Enzyme Activity (relative to DMSO controls) Data 2

T1 sequence (Q9UK32 whole entry): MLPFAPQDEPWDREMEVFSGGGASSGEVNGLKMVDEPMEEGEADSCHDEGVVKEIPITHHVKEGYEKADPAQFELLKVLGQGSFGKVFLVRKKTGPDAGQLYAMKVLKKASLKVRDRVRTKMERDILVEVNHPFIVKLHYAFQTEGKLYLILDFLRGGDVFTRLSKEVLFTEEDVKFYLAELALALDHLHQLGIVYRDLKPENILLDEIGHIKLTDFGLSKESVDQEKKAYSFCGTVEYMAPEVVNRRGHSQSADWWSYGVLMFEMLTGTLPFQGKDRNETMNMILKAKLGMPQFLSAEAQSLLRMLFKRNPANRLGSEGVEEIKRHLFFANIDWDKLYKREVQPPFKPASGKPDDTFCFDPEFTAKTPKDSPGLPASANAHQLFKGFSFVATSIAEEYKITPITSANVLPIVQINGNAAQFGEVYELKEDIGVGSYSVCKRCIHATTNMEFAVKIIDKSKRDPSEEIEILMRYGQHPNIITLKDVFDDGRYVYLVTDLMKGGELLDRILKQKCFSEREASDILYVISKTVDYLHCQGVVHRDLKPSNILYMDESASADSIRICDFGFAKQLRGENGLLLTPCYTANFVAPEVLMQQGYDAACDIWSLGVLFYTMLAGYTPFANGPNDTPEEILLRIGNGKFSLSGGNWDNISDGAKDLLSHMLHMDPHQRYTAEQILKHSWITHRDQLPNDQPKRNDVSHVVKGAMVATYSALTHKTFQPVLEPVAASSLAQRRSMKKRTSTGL

CC(C)(C)C(=O)N1N=CC[C@H]1c1ccccc1 [GSK′963]
remaining activity at 10 µM (RSK4; [1]): 116%
remaining activity at 10 µM (RSK4; [2]): 116%
remaining activity at 10 µM (RSK4; [3]): 116%
remaining activity at 10 µM (VRK1; [1]): 78.2%
remaining activity at 10 µM (VRK1; [2]): 80.9%
remaining activity at 10 µM (VRK1; [3]): 75.4%
remaining activity at 10 µM (EPHB4; [1]): 101%
remaining activity at 10 µM (EPHB4; [2]): 100%
remaining activity at 10 µM (EPHB4; [3]): 101%
remaining activity at 10 µM (TBK1; [1]): 86%
remaining activity at 10 µM (TBK1; [2]): 86.8%
remaining activity at 10 µM (TBK1; [3]): 85.3%
remaining activity at 10 µM (CAMK2a; [1]): 102%
remaining activity at 10 µM (CAMK2a; [2]): 101%
remaining activity at 10 µM (CAMK2a; [3]): 102%
remaining activity at 10 µM (CAMK1a; [1]): 96.3%
remaining activity at 10 µM (CAMK1a; [2]): 99.3%
remaining activity at 10 µM (CAMK1a; [3]): 93.3%
remaining activity at 10 µM (HCK; [1]): 96.5%
remaining activity at 10 µM (HCK; [2]): 95.5%
remaining activity at 10 µM (HCK; [3]): 97.6%
